Where two headings read alike, the source gives them in different places. Some results are limits rather than exact numbers.

What is called Ki is a measure of affinity in units of concentration, obtained from inhibition or displacement. Higher therefore signals a looser hold on the target. A word on the clearance: it is a measure of how efficiently the substance is removed, as volume per time. Lower therefore signals inefficient removal. The term IC50 denotes the concentration at which inhibition is half-maximal. What is called melting point is the temperature, or range, at which the solid turns liquid. As usually defined, the inhibition is the percentage by which the read-out fell short of the control.

The target of data set [1] is T1, ICE (Homo sapiens, UniProt P29466).
T1 sequence (P29466 120-297 limits assumed): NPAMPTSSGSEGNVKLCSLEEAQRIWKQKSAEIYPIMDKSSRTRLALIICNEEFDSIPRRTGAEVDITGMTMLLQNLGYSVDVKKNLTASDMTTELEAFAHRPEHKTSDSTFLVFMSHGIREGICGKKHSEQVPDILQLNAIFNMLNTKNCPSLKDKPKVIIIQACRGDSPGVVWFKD
T1 sequence (P29466 317-404 limits assumed): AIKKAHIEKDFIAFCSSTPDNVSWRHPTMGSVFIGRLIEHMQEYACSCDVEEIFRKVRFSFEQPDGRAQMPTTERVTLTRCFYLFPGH
As to the kind of experiment: Enzyme assay with UV-visible substrate (visible ICE assay, Succinyl-Tyr-Val-Ala-Asp-pNitroanilide). It counts as biochemical. An outline of the steps:
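Buffer, ICE and inhibitor in DMSO are combined and held 15 min at room temperature. Succinyl-Tyr-Val-Ala-Asp-pNA is then added and absorbance at 405-603 nm tracked for 20 min at 37° C.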

The nature of data set [2]: Pharmacokinetic studies in the mouse (i.v. clearance, plasma levels). It is filed as in vivo. Particulars: CD-1, plasma, iv, mouse, 25 mg/kg. The method, then: Pharmacokinetic Studies in the Mouse
Sample Preparation and Dosing
Compounds were dissolved in sterile TRIS solution (0.02M or 0.05M) at a concentration of 2.5 mg/ml. Where necessary to ensure a complete solution, the sample was first dissolved in a minimum of dimethylacetamide (maximum of 5% of total solution volume) then diluted with the TRIS solution.
The drug solution was administered to CD-1 mice (Charles River Laboratories—26-31 g) via the tail vein at a dose volume of 10 ml/kg giving a drug dose of 25 mg/kg.
Mice were dosed in groups of 5 for each timepoint (generally from 2 minutes to 2 hours) then at the appropriate time the animals were anaesthetised with halothane and the blood collected into individual heparinized tubes by jugular severance. The blood samples were cooled to 0° C. then the plasma separated and stored at −20° C. until assayed.
Drug concentration in the plasma samples were determined by HPLC analysis with UV or MS (ESP) detection. Reverse phase chromatography was employed using a variety of bonded phases from C1 to C18 with eluents composed of aqueous buffer/acetonitrile mixtures run under isocratic conditions.
Quantitation was by external standard methods with calibration curves constructed by spiking plasma with drug solutions to give concentrations in the range of 0.5 to 50 μg/ml.
Prior to analysis the plasma samples were deproteinated by the addition of acetonitrile, methanol, trichloroacetic acid or perchloric acid followed by centrifugation at 10,000 g for 10 minutes. Sample volumes of 20 μl to 50 μl were injected for analysis.
The drug was dissolved in sterile 0.02M Tris to give a 2.5 mg/ml solution which was administered to […] of 5 male CD-1 mice via the tail vein at a dose of 25 mg/kg. At each of the following timepoints: 2, 5, 10, 15, 20, 30, 45, 60, 90 and 120 minutes a group of animals was anaesthetised and the blood collected into heparinized tubes. After separation the plasma was stored at −20° C. until assayed.
Aliquots of plasma (150 μl) were treated with 5% perchloric acid (5 μl) then mixed by vortexing and allowed to stand for 90 minutes prior to centrifugation. The resulting supernatant was separated and 20 μl was injected for HPLC analysis.
Aliquots of plasma (100 μl) were diluted with acetonitrile (100 μl) then mixed by vortexing for 20 seconds before centrifugation for 10 minutes. The resulting supernatant was separated and 20 μl was injected for HPLC analysis.

Data set [3] deals with IL-1β, human peripheral blood mononuclear cells (PBMC). As to the kind of experiment: PBMC cell assay: IL-1β assay with human PBMC or enriched adherent mononuclear cells, LPS-stimulated. It counts as cell-based. Conditions: Homo sapiens, PBMC. An outline of the steps:
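Mature IL-1β is measured by ELISA in supernatants after 16–18 hr at 37 °C, 5% CO2, with LPS (5 ng/ml final) and test compound (0.1% DMSO final). Cells are human PBMC (6×10^6 cells/ml) or plate-adherent mononuclear cells (2.5−3.0×10^5 per well), and the 5–6 compound concentrations span the ICE Ki.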

Data set [4] can be described thus: In vivo rat clearance assay. Conditions: plasma, iv. Summed up:
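Rats cannulated a day beforehand received 10–20 mg/kg by intravenous jugular dosing in propylene glycol/saline with 100 mM sodium bicarbonate. Carotid blood was sampled from 0 to 90 min, and plasma was extracted with acetonitrile/0.1% TFA for HPLC quantification. Clearance from non-linear regression pharmacokinetic analysis.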

A further data set deals with IL-1β, human whole blood. As to the kind of experiment: Whole blood assay for IL-1β production. It counts as cell-based. Particulars: Homo sapiens, * = values obtained upon reassay; read-out: Whole human blood IC50. An outline of the steps:
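IL-1β was quantified by ELISA in plasma diluted 1:200. The plasma came from EDTA-anticoagulated human whole blood incubated at 30 °C for 16-18 h with LPS (final 5.0 ng/ml) plus a saline serial dilution of compound. Controls were no-LPS, no-inhibitor and highest-vehicle.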

The test system of data set [5] is IL-1β production, LPS-challenged mice. Briefly: In vivo acute assay for efficacy as anti-inflammatory agent: LPS-induced IL-1β production in mice. The arrangement: species or system mouse. Particulars: Mus musculus, po, LPS challenged mice, compound PO, 50 mg/kg, read-out: percent inhibition of IL-1β production. Summed up:
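Serum IL-1β was measured by ELISA 7 h after an IP dose of 20 mg/kg LPS in CD1 mice, n=6 per group. Compounds in olive oil/DMSO/ethanol 90:5:5 were injected IP 1 h post-LPS (some analogs were dosed at challenge), and separate groups received 50 mg/kg by oral gavage.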

Another data set concerns the target T2, TX (Homo sapiens, UniProt P49662).
T2 construct: made in house; host or cells: Spodoptera frugiperda (Sf9) insect cells, recombinant baculovirus (pVL1393/TX)
T2 sequence (P49662 81-270 limits assumed): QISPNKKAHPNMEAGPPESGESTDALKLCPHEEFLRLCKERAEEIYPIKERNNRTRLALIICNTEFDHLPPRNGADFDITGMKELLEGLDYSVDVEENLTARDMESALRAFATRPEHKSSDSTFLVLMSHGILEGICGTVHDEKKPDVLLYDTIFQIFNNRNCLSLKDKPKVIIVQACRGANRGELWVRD
T2 sequence (P49662 290-377 limits assumed): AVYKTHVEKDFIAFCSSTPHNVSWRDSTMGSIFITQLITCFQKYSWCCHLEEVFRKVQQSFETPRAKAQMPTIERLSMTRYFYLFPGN
As to the kind of experiment: Inhibition of ICE homologs: TX. It is filed as biochemical. Particulars: second-order rate constant for inactivation, irreversible inhibitors (Table 2). The source says:
Expression of TX in insect cells using a baculovirus expression system. We have subcloned Tx cDNA (Faucheu et al., supra 1995) into a modified pVL1393 transfer vector, co-transfected the resultant plasmid (pVL1393/TX) into insect cells with viral DNA and identified the recombinant baculovirus. After the generation of high titer recombinant virus stock, the medium was examined for TX activity using the visible ICE assay. […] ICE was used as a standard in the assay.
(§1) The selectivity of a panel of reversible inhibitors for ICE homologs is depicted in Table 1. ICE enzyme assays were performed according to Wilson et al (supra 1994) using a YVAD-AMC substrate (Thornberry et al, supra 1992). Assay of TX activity was performed using the ICE substrate under identical conditions to ICE. Assay of CPP32 was performed using a DEVD-AMC substrate (Nicholson et al., supra 1995). In general, there is low selectivity between ICE and TX for a wide range of scaffolds. None of the synthetic ICE compounds tested are effective inhibitors of CPP32.
(§2) Second-order rate constants for inactivation of ICE and ICE homologs with selected irreversible inhibitors are presented below (Table 2). The irreversible compounds studied are broad spectrum inhibitors of ICE and its homologs. Some selectivity, however, is observed with the irreversible compounds comparing inhibition of ICE and CPP32.

The next data set deals with U937 cells. As to the kind of experiment: Fas-induced apoptosis in U937 cells. Particulars: Homo sapiens, U-937, read-out: Inhibition of apoptosis.
Data set [6] addresses T1, ICE. Briefly: Enzyme assay with fluorescent substrate (Acetyl-Tyr-Val-Ala-Asp-AMC); Ki and second order rate constants kinact. It is filed as biochemical. On the procedure: 2. Enzyme Assay with Fluorescent Substrate
This assay is run essentially according to Thornberry et al. (Nature 356: 768-774 (1992)), using substrate 17 referenced in that article. The substrate is: Acetyl-Tyr-Val-Ala-Asp-amino-4-methylcoumarin (AMC). The following components are mixed:
The assay is run in a 96 well microtiter plate. Buffer and ICE are added to the wells. The components are left to incubate at 37° C. for 15 minutes in a temperature-controlled wellplate. After the 15 minute incubation, the reaction is started by adding substrate directly to the wells and the reaction is monitored @37° C. for 30 minutes by following the release of the AMC fluorophore using an excitation wavelength for 380 nm and an emission wavelength of 460 nm. A linear fit of the data for each well is performed and a rate is determined in fluorescence units per second.
For determination of enzyme inhibition constants (Ki) or the mode of inhibition (competitive, uncompetitive or noncompetitive), the rate data determined in the enzyme assays at varying inhibitor concentrations are computer-fit to standard enzyme kinetic equations (see I. H. Segel, Enzyme Kinetics, Wiley-Interscience, 1975).
The determination of second order rate constants for irreversible inhibitors was performed by fitting the fluorescence vs time data to the progress equations of Morrison. Morrison, J. F., Mol. Cell. Biophys., 2, pp. 347-368 (1985). Thornberry et al. have published a description of these methods for measurement of rate constants of irreversible inhibitors of ICE. Thornberry, N. A., et al. Biochemistry, 33, pp. 3923-3940 (1994). For compounds where no prior complex formation can be observed kinetically, the second order rate constants (kinact) are derived directly from the slope of the linear plots of kobs vs. [I]. For compounds where prior complex formation to the enzyme can be detected, the hyperbolic plots of kobs vs. [I] are fit to the equation for saturation kinetics to first generate Ki and k′. The second order rate constant kinact is then given by k′/Ki.
as §1, §2

Procedure for U937 cells: Fas-Induced Apoptosis in U937 cells. Compounds were evaluated for their ability to block anti-Fas-induced apopotosis. […] We used this cell line for apoptosis studies. U937 cells were seeded in culture at 1×10^5 cells/ml and grown to ˜5×10^6 cells/ml. For apoptosis experiments, 2×10^6 cells were plated in 24-well tissue culture plates in 1 ml RPMI-1640-10% FBS and stimulated with 100 ng/ml anti-Fas antigen antibody (Medical and Biological Laboratories, Ltd.). After a 24 hr incubation at 37° C., the percentage of apoptotic cells was determined by FACS analysis using ApoTag reagents.

Turning to `O=C[C@H](CCC(=O)O)NC(=O)[C@@H]1CCCN2C(=O)CC[C@H](NC(=O)c3ccccc3)C(=O)N12` [Compound 235e, [4S,(1S,9S)]-4-[9-(Benzoylamino)-6,10-dioxo-1,2,3,4,7,8,9,10-octahydro-6H-pyridazino-[1,2-a][1,2]diazepine-1-carboxamido]-5-oxopentanoic acid], the melting point was 142 °C (dec.). On ICE [1] (Table 5), this compound returned a Ki of 510 nM. Also, in data set [2], the clearance worked out at 36 mL/min/kg. This compound also came in with an IC50 in [3] (* = values obtained upon reassay) of 4.75 µM.
Regarding `O=C[C@H](CC(=O)O)NC(=O)[C@@H]1CCCN2CCC[C@@H](NC(=O)c3ccccc3)C(=O)N12` [Compound 246b, [3S(1S,9R)]3-(9-Benzoylamino-1,2,3,4,7,8,9,10-octahydro-10-oxo-6H-pyridazino[1,2-a][1,2]diazepine-1-carboxamido)-4-oxobutanoic acid], the melting point lay in the range of 115 to 119 °C. Also, at ICE [1] (Table 17), the Ki is 30000 nM. Moreover, the clearance in data set [2] (Table 17) was 87 mL/min/kg. Further, the IC50 in data set [3] (Table 17) was > 30 µM.
In turn, `O=C[C@H](CC(=O)O)NC(=O)[C@@H]1CCCN2C(=O)CCN(NC(=O)Cc3ccccc3)C(=O)N12` [Compound 1095, [3S(4S)]3-(6,10-Dioxo-1,2,3,4,7,8,9,10-octahydro-7-phenylacetylamino-6H-pyridazino[1,2-a][1,2,4]triazepine-4-carboxamido)-4-oxobutanoic acid] registered a melting point of 180 to 186 °C. On ICE [1] (Table 17), this compound returned an inhibitory constant (Ki) of 360 nM. In addition, it took 6 µM to reach half-maximal inhibition in data set [3] (Table 17) (IC50). In addition, in [4] (Table 17), the clearance was 28 mL/min/kg.
With `O=C[C@H](CC(=O)O)NC(=O)[C@@H]1CCCN2CCC[C@H](NC(=O)CCc3ccccc3)C(=O)N12` [Compound 47b, [3S(1S,9S)]3-(Octahydro-10-oxo-9-(3-phenylpropionylamino)-6H-pyridazino-[1,2-a][1,2]diazepine-1-carboxamido)-4-oxobutanoic acid], the melting point was 87 to 90 °C. In the data set with IL-1β, human whole blood, the IC50 is < 600 nM. Moreover, in [2], the clearance stood at 338 mL/min/kg.
Regarding `O=C[C@H](CC(=O)O)NC(=O)[C@@H]1CCCN2C(=O)CC[C@H](NC(=O)c3ccc(O)cc3)C(=O)N12` [Compound 456], the melting point was > 260 °C. For the same compound, the affinity on ICE [1] (Table 5), expressed as Ki, was 4.5 nM. Besides, in data set [5] (0 h, administered 0 h relative to time of LPS challenge), the inhibition at 50 mg/kg is 69%. The inhibition at 50 mg/kg in data set [5] (1 h, administered +1 h relative to time of LPS challenge) was 56%. Also, in data set [5] (2 h, administered −2 h relative to time of LPS challenge), the inhibition at 50 mg/kg worked out at 41%. The clearance in data set [4] (10-20 mg/kg) turned out to be 12.7 mL/min/kg.
Regarding `O=C(O)C[C@H](NC(=O)CN1C(=O)[C@@H](NC(=O)CCc2ccccc2)CN(C(=O)CCc2ccccc2)c2ccccc21)C(=O)COC(=O)c1c(Cl)cccc1Cl` [Compound 108a, 2,6-Dichlorobenzoic acid 4-carboxy-2-oxo-3(S)-{2-[2-oxo-5-(3-phenylpropionyl)-3(S)-(3-phenylpropionylamino)-2,3,4,5-tetrahydrobenzo[b][1,4]diazepin-1-yl]acetylamino}butyl ester], the “kinact (TX)” value on TX is listed as 25,000 M^−1 s^−1. The inhibition at 20 µM with U937 cells is > 75%. The “Fluorescent Assay kinact” value on ICE [6] (Table 6) is 1 × 10^5 m^−1 s^−1. Moreover, the “kinact (ICE)” value at ICE [6] (second-order rate constant for inactivation, irreversible inhibitors (Table 2)) is 100,000 M^−1 s^−1.

The values above are taken from US20120165319A1, “INHIBITORS OF INTERLEUKIN-1 BETA CONVERTING ENZYME” (VERTEX PHARMACEUTICALS INCORPORATED, priority 1995, published 2012).
